According to US9249123B2, “Pyridinones/pyrazinones, method of making, and method of use thereof” (Genentech, Inc., priority 2010, dated 2016):

What follows are compounds tested on CD86 surface expression on CD19+/7AAD- total mouse splenocytes stimulated with IgM (assay: CD86 Inhibition Assay). Conditions: Splenocyte; Balb/c mouse splenocytes, IgM stimulation, 24 hr.
Type: cell-based
Protocol: A CD86 Inhibition assay can be conducted on Formula I compounds for the inhibition of B cell activity using total mouse splenocytes purified from spleens of 8-16 week old Balb/c mice (Example 905).
A generalized procedure for a standard assay for the inhibition of B cell activity that can be used to test Formula I compounds is as follows. Total mouse splenocytes are purified from spleens of 8-16 week old Balb/c mice by red blood cell lysis (BD Pharmingen #555899). Testing compounds are diluted to 0.5% DMSO and incubated with 1.25×10^6 splenocytes in a final volume of 200 μl in flat clear bottom plates (Falcon 353072) for 60 min at 37° C. Cells are then stimulated with the addition of 15 μg/ml IgM (Jackson ImmunoResearch 115-006-020), and incubated for 24 hr at 37° C., 5% CO2. Following the 24 hr incubation, cells are transferred to conical bottom clear 96-well plates and pelleted by centrifugation at 1200×g×5 min. Cells are preblocked by CD16/CD32 (BD Pharmingen #553142), followed by triple staining with CD19-FITC (BD Pharmingen #553785), CD86-PE (BD Pharmingen #553692), and 7AAD (BD Pharmingen #51-68981E). Cells are sorted on a BD FACSCalibur and gated on the CD19^+/7AAD^− population. The levels of CD86 surface expression on the gated population is measured versus test compound concentration. Exemplary results are in Table 3.

**Q.** With `Cc1c(-c2cn(C)c(=O)c(Nc3ccc(C4C(=O)NCCN4C)cc3)n2)cccc1N1Cc2cc(C(C)(C)C)sc2C1=O` (stereo not drawn) [Compound 134, 5-(3-{2-tert-butyl-6-oxo-4H,5H,6H-thieno[2,3-c]pyrrol-5-yl}-2-methylphenyl)-1-methyl-3-{[4-(1-methyl-3-oxopiperazin-2-yl)phenyl]amino}-1,2-dihydropyrazin-2-one] as the compound, how does the EC50 read?
**A.** 1900 nM

What follows are compounds tested against full length human wildtype Btk (Homo sapiens (Human), UniProt Q06187) (assay: Biochemical Btk Assay). Conditions: not given.
full length human wildtype Btk, sequence (Q06187 whole entry): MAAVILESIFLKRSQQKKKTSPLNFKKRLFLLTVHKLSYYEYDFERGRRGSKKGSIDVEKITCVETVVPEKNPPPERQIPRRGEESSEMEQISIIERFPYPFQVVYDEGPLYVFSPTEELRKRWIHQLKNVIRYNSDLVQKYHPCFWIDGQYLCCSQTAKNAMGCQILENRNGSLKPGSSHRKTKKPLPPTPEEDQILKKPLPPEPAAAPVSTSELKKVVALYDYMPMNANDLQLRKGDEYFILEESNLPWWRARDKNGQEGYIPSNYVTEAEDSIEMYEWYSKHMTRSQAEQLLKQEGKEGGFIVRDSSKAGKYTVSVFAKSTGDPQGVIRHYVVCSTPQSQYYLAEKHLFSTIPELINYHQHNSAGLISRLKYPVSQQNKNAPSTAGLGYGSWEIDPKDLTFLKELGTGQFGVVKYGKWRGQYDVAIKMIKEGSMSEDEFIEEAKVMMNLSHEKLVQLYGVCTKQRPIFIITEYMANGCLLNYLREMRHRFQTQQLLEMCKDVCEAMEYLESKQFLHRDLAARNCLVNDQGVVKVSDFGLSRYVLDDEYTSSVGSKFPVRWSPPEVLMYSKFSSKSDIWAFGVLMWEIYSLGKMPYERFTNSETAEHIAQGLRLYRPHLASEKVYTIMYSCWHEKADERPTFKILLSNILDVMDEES
Protocol: Formula I compounds were tested by a standard biochemical Btk Kinase Assay (Example 901). A generalized procedure for a standard biochemical Btk Kinase Assay that can be used to test Formula I compounds is as follows. […] A master mix plus Btk enzyme is prepared containing 1× Cell Signaling kinase buffer, 0.5 μM PTK Biotinylated peptide substrate 2, 0.01% BSA, and 100 ng/well (0.06 mU/well) Btk enzyme. Btk enzyme is prepared as follows: full length human wildtype Btk (accession number NM-000061) with a C-terminal V5 and 6×His tag was subcloned into pFastBac vector for making baculovirus carrying this epitope-tagged Btk. Generation of baculovirus is done based on Invitrogen's instructions detailed in its published protocol “Bac-to-Bac Baculovirus Expression Systems” (Cat. Nos. 10359-016 and 10608-016). […] The Btk protein is then purified to homogeneity using Ni-NTA column. The purity of the final protein preparation is greater than 95% based on the sensitive Sypro-Ruby staining. A solution of 200 μM ATP is prepared in water and adjusted to pH7.4 with 1N NaOH. A quantity of 1.25 μL of compounds in 5% DMSO is transferred to a 96-well ½ area Costar polystyrene plate. Compounds are tested singly and with an 11-point dose-responsive curve (starting concentration is 10 μM; 1:2 dilution). A quantity of 18.75 μL of master mix minus enzyme (as a negative control) and master mix plus enzyme is transferred to appropriate wells in 96-well ½ area costar polystyrene plate. 5 μL of 200 μM ATP is added to that mixture in the 96-well ½ area Costar polystyrene plate for final ATP concentration of 40 μM. The reaction is allowed to incubate for 1 hour at room temperature. The reaction is stopped with Perkin Elmer 1× detection buffer containing 30 mM EDTA, 20 nM SA-APC, and 1 nM PT66 Ab. The plate is read using time-resolved fluorescence with a Perkin Elmer Envision using excitation filter 330 nm, emission filter 665 nm, and 2nd emission filter 615 nm. IC50 values are subsequently calculated. Alternatively, the Lanthascreen assay can be used to evaluate Btk activity through quantification of its phosphorylated peptide product. The FRET (Fluorescence Resonance Energy Transfer) that occurs between the fluorescein on the peptide product and the terbium on the detection antibody decreases with the addition of inhibitors of Btk that reduce the phosphorylation of the peptide. […] The reaction is initiated by the addition of ATP to 25 uM (Km of ATP). After incubation for 60 minutes at room temperature, the reaction is stopped by the addition of a final concentration of 2 nM Tb-PY20 detection antibody in 60 mM EDTA for 30 minutes at room temperature. Detection is determined on a Perkin Elmer Envision with 340 nm excitation and emission at 495 nm and 520 nm. Exemplary Btk inhibition IC50 values are in Tables and 2.

**Q.** For `CN1CCN(C)[C@@H](c2ccc(Nc3nc(-c4ccc(F)c(N5Cc6cc(C(C)(C)C)sc6C5=O)c4)cn(C)c3=O)cc2)C1=O` [Compound 131, 5-(3-{2-tert-butyl-6-oxo-4H,5H,6H-thieno[2,3-c]pyrrol-5-yl}-4-fluorophenyl)-3-({4-[(2S)-1,4-dimethyl-3-oxopiperazin-2-yl]phenyl}amino)-1-methyl-1,2-dihydropyrazin-2-one], which IC50 is on record?
**A.** 47.4 nM

**Q.** How did the IC50 turn out when `Cc1c(-c2cn(C)c(=O)c(Nc3ccc(C4C(=O)NCCN4C)cc3)n2)cccc1N1Cc2cc(C(C)(C)C)sc2C1=O` (stereo not drawn) [Compound 134, 5-(3-{2-tert-butyl-6-oxo-4H,5H,6H-thieno[2,3-c]pyrrol-5-yl}-2-methylphenyl)-1-methyl-3-{[4-(1-methyl-3-oxopiperazin-2-yl)phenyl]amino}-1,2-dihydropyrazin-2-one] was run?
**A.** 24.7 nM

**Q.** `Cc1c(-c2cn(C)c(=O)c(Nc3ccc(C4NCCN(C)C4=O)cc3)n2)cccc1N1Cc2cc(C(C)(C)C)sc2C1=O` (stereo not drawn) [Compound 102, 2-tert-butyl-5-(2-methyl-3-(4-methyl-6-(4-(4-methyl-3-oxopiperazin-2-yl)phenylamino)-5-oxo-4,5-dihydro-pyrazin-2-yl)phenyl)-4H-thieno[2,3-c]pyrrol-6(5H)-one] was tested. Which IC50 did it give?
**A.** 11.5 nM

**Q.** How did the IC50 turn out when `CN1CCN(C)[C@@H](c2ccc(Nc3nc(-c4ccc(F)c(N5Cc6cc(C(C)(C)C)sc6C5=O)c4F)cn(C)c3=O)cc2)C1=O` [Compound 130, 5-(3-{2-tert-butyl-6-oxo-4H,5H,6H-thieno[2,3-c]pyrrol-5-yl}-2,4-difluorophenyl)-3-({4-[(2S)-1,4-dimethyl-3-oxopiperazin-2-yl]phenyl]amino)-1-methyl-1,2-dihydropyrazin-2-one] was run?
**A.** 33.7 nM

**Q.** Which IC50 does the source give for `Cc1c(-c2cn(C)c(=O)c(Nc3ccc(C4C(=O)NCCN4C)cc3)n2)cccc1N1Cc2cc(C(C)(C)C)sc2C1=O` (stereo not drawn) [Compound 104, 2-tert-butyl-5-(2-methyl-3-(4-methyl-6-(4-(1-methyl-3-oxopiperazin-2-yl)phenylamino)-5-oxo-4,5-dihydropyrazin-2-yl)phenyl)-4H-thieno[2,3-c]pyrrol-6(5H)-one] here?
**A.** 95 nM
